These results are taken from US5428021A, “Human leukocyte elastase (HLE) inhibitors, and related pharmaceutical compositions and methods of use” (SRI International, priority 1994, dated 1995).

What all share (type): biochemical
Test [1] deals with T1, Elastase (human neutrophil (HLE)) (Homo sapiens, UniProt P08246).
T1 construct: purchased Calbiochem
T1 sequence (P08246 30-267): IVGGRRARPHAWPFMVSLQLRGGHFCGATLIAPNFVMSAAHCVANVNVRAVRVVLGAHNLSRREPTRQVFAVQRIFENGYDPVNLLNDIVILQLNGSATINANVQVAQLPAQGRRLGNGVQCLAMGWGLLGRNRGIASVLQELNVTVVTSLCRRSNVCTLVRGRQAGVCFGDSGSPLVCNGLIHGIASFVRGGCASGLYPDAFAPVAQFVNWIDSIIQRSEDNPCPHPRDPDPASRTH
In words: Inhibition of human leukocyte (neutrophil) elastase, progress curve method (methoxy-Suc-Ala-Ala-Pro-Val-pNA substrate). The note with it: for Ki / koff / kon: 25 mM HEPES, 1M NaCl, 0.1% BRIJ 35, pH 6.5, 25° C.; for kinact/KI: pH 6.5, read-out: kobs /[I] Enzyme; for kobs /[I] HLE / kobs /[I] Enzyme: relative selectivity, HLE over HLE. Here is the method:
(§1) Enzymes and their substrates, listed below, were obtained from Calbiochem.
(§2) Enzyme and substrate concentrations were chosen to obtain pseudo first order conditions for the entire timecourse, with uninhibited enzyme maintaining a constant rate of product formation for longer than the fifteen minute sampling time.
(§3) Additional compounds within the scope of the invention were evaluated using the progress curve method of Stein et al. to determine the kinetic constants kon, koff, as well as the pKi and relative selectivity for HLE over other serine proteases.

Test [2] deals with T2, Cathepsin-G (human neutrophil) (Homo sapiens, UniProt P08311).
T2 construct: purchased Calbiochem
T2 sequence (P08311 21-255): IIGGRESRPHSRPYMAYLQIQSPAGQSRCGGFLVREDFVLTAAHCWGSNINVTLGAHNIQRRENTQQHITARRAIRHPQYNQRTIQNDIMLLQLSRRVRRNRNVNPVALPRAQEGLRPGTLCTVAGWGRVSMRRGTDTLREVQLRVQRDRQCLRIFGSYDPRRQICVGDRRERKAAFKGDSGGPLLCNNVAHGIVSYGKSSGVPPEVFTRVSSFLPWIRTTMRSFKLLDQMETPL
The test is described as follows: Inhibition of cathepsin G, progress curve method (Suc-Ala-Ala-Pro-Phe-pNA substrate). The note with it: for kinact/KI: pH 6.5, read-out: kobs /[I] Enzyme; for kobs /[I] HLE / kobs /[I] Enzyme: relative selectivity, HLE over Cathepsin G. The method, then: as §1
Cathepsin-G (human neutrophil
Suc--Ala--Ala--Pro--Phe--
as §2, §3

In test [3] the target is T3, Elastase (porcine pancreatic) (PPE) (Sus scrofa, UniProt P00772).
T3 construct: purchased Calbiochem
The test is described as follows: Inhibition of porcine pancreatic elastase (PPE), progress curve method (Suc-Ala-Ala-Ala-pNA substrate). The note with it: for kinact/KI: pH 7.5, read-out: kobs /[I] Enzyme; for kobs /[I] HLE / kobs /[I] Enzyme: relative selectivity, HLE over PPE. The method, then: as §1, §2, §3

Test [4] concerns the target T4, α Chymotrypsin (bovine pancreatic) (Bos taurus, UniProt P00766).
T4 construct: purchased Calbiochem
The test is described as follows: Inhibition of chymotrypsin, progress curve method (Suc-Gly-Gly-Phe-pNA substrate). The note with it: for kinact/KI: pH 7.5, read-out: kobs /[I] Enzyme; for kobs /[I] HLE / kobs /[I] Enzyme: relative selectivity, HLE over Chymotrypsin. The method, then:
as §1
Suc--Gly--Gly--Phe--pNA
as §2, §3

The target in test [5] is T5, Trypsin (bovine pancreatic) (Bos taurus, UniProt P00760).
T5 construct: purchased Calbiochem
T5 sequence (P00760 24-246): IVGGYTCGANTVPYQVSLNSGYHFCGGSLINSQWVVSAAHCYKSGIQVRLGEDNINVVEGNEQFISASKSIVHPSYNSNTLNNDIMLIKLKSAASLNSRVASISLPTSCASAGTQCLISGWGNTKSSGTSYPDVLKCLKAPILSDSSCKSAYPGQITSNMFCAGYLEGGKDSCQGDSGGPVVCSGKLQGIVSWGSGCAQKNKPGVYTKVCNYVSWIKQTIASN
The test is described as follows: Inhibition of trypsin, progress curve method (Bz-Arg-pNA substrate). The note with it: for kinact/KI: pH 7.5, read-out: kobs /[I] Enzyme; for kobs /[I] HLE / kobs /[I] Enzyme: relative selectivity, HLE over Trypsin. The method, then:
as §1, §2, §3

T3 sequence (P00772 27-266): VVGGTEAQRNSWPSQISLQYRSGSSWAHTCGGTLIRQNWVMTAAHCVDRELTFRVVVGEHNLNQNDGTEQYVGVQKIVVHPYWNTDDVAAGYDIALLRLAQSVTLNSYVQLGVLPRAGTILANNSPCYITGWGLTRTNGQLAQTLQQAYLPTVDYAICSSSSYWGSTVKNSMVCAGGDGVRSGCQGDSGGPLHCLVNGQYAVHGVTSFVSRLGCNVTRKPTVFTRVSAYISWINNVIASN

In turn, `CCOc1nc2ccc(N)c(C)c2c(=O)o1` showed an inhibitory constant (Ki) in test [1] (HLE) of 14.5 pM. Besides, in test [1] (pH 6.5, HLE), the koff is 2.3e-05 s⁻¹ and the kon worked out at 750000 M⁻¹ s⁻¹.

Regarding `CCOc1nc2ccc(C(C)NC(=O)[C@@H](NC(=O)OC(C)(C)C)C(C)C)c(C)c2c(=O)o1` (single isomer, unassigned) [7 Isomer A], in test [1] (HLE), the Ki was 58.9 pM and the kon is 304,000 M^-1 sec^-1. Besides, in test [1] (pH 6.5, HLE), the koff came to 1.8e-05 s⁻¹.

With `CCOc1nc2ccc(C(C)NC(=O)[C@@H](NC(=O)OC(C)(C)C)C(C)C)c(C)c2c(=O)o1` (single isomer, unassigned) [7 Isomer B], the kinact/KI in test [2] came to 967 M⁻¹ s⁻¹; in test [3], 967 M⁻¹ s⁻¹; in test [4], 2570 M⁻¹ s⁻¹; in test [5] it was 1550 M⁻¹ s⁻¹; in test [1], 1.1e+06 M⁻¹ s⁻¹. Besides, the “kobs /[I] HLE / kobs /[I] Enzyme” value is 1140 in test [2]; 1140 in test [3]; 430 in test [4]; 710 in test [5]; 1 in test [1]. Further, the inhibition constant (Ki) in test [1] (HLE) is 14.5 pM. The dissociation rate constant (koff) in test [1] (HLE) amounted to 0.000016 s⁻¹. Further, the kon in test [1] (HLE) is 1,100,000 M^-1 sec^-1.

Take `CCOc1nc2ccc(NC(=O)CCNC(=O)OC(C)(C)C)c(C)c2c(=O)o1` [Example 2, 6-(N-tert-butyloxycarbonyl-β-alanyl)amino-5-methyl-2-ethoxy-4H-3,1-benzoxazin-4-one]: the kinact/KI in test [2] is 460 M⁻¹ s⁻¹; in test [3], 2860 M⁻¹ s⁻¹; in test [4], 3500 M⁻¹ s⁻¹; in test [5], 200 M⁻¹ s⁻¹; in test [1] it was 365000 M⁻¹ s⁻¹. Further, the “kobs /[I] HLE / kobs /[I] Enzyme” value in test [2] is 790; in test [3] it was 130; in test [4], 100; in test [5], 1830; in test [1], 1. The inhibition constant (Ki) in test [1] (HLE) was 1100 pM. Also, the off-rate constant (koff) in test [1] (pH 6.5, HLE) turned out to be 0.000404 s⁻¹. For the same compound, the kon in test [1] (pH 6.5, HLE) worked out at 365000 M⁻¹ s⁻¹.

`CCOc1nc2ccc(NC(=O)CCN(C)C(=O)OC(C)(C)C)c(C)c2c(=O)o1` [Example 3, 6-(N-tert-butyloxycarbonyl-N-methyl-β-alanyl)-amino-5-methyl-2-ethoxy-3,1-benzoxazin-4-one] had an inhibitory constant (Ki) in test [1] (HLE) of 1320 pM. Moreover, in test [1] (pH 6.5, HLE), the off-rate (koff) is 0.00042 s⁻¹ and the kon stood at 320000 M⁻¹ s⁻¹.

In test [1] (HLE), `CCOc1nc2ccc(N)c(CC)c2c(=O)o1` [Example 4] showed a Ki of 100 pM. Further, in test [1] (pH 6.5, HLE), the koff came to 4.7e-05 s⁻¹ and the kon came to 470000 M⁻¹ s⁻¹.

With `CCOc1nc2ccc(NC(=O)CCN(C)C(=O)OC(C)(C)C)c(CC)c2c(=O)o1` [Example 5, 6-(N-tert-butyloxycarbonyl-N-methyl-β-alanyl)-amino-5-ethyl-2-ethoxy-3,1-benzoxazin-4-one], the inhibitory constant (Ki) in test [1] (HLE) is 107 pM. In test [1] (pH 6.5, HLE), the dissociation rate constant (koff) turned out to be 3e-05 s⁻¹ and the kon amounted to 281000 M⁻¹ s⁻¹.

Consider `CCOc1nc2ccc(NC(=O)CCN(C)S(=O)(=O)c3ccc(C)cc3)c(CC)c2c(=O)o1` [Example 6, 6-(N-4-methylbenzenesulfonyl-N-methyl-β-alanyl)-amino-5-ethyl-2-ethoxy-4H-3,1-benzoxazin-4-one], for which the kinact/KI in test [2] amounted to 340 M⁻¹ s⁻¹; in test [3], 3450 M⁻¹ s⁻¹; in test [4], 11900 M⁻¹ s⁻¹; in test [5], 80 M⁻¹ s⁻¹; in test [1], 745000 M⁻¹ s⁻¹. Also, the “kobs /[I] HLE / kobs /[I] Enzyme” value in test [2] is recorded as 2190; in test [3], 220; in test [4] it was 60; in test [5], 9312; in test [1] it was 1. Besides, the affinity in test [1] (HLE), expressed as Ki, was 93.3 pM. Further, the koff in test [1] (pH 6.5, HLE) is 6.9e-05 s⁻¹. The compound further came in with a kon in test [1] (pH 6.5, HLE) of 745000 M⁻¹ s⁻¹.

As to `CCOc1nc2ccc(C(C)NC(=O)[C@H](C)NC(=O)OC(C)(C)C)c(C)c2c(=O)o1` (stereo partly drawn) [Example 8, 6-[1-(N-tert-butyloxycarbonyl-L-alanyl)-aminoethyl]-2-ethyloxy-5-methyl-4H-3,1-benzoxazin-4-one], the Ki in test [1] (HLE) was 33.1 pM. In test [1] (pH 6.5, HLE), this compound showed a koff of 1.7e-05 s⁻¹ and an on-rate (kon) of 520000 M⁻¹ s⁻¹.

Compound `CCOc1nc2cccc(C)c2c(=O)o1` [positive control, reference compound] gave a Ki in test [1] (HLE) of 513 pM. Besides, in test [1] (pH 6.5, HLE), the koff was 7.2e-05 s⁻¹ and the kon stood at 140000 M⁻¹ s⁻¹.

By Ki is commonly meant the dissociation constant of the complex between target and ligand, obtained from inhibition or displacement. Lower therefore signals tighter binding. What is called koff is the first-order rate constant of dissociation. For orientation: kon means a measure of how fast the partners come together.
